Test results from patent US20260034153A1, “Cerebral Blood Flow Augmenter, Brain Activity Promoter, and Vigilance Improver” (Mitsui DM Sugar Co., Ltd., priority 2022, published 2026).

Assays:
[1] = test system: healthy men and women; assay: Change in cerebral blood flow in the dorsal lateral prefrontal area during DVT, measured by fNIRS (HOT-2000); type: in vivo, human; conditions: throughout 5 DVTs, compared to glucose intake group, FIGS. 2 and 3
Experimental: The subjects mentioned above were instructed to take a test diet containing glucose instead of isomaltulose on another day and the same test was performed (crossover test). They constituted a control group.
Using a brain activity measuring apparatus (HOT-2000, manufactured by NeU Corporation) based on fNIRS (near-Infrared spectroscopy), a change in cerebral blood flow in the dorsal lateral prefrontal area was measured during DVT. According to this apparatus, a change in hemoglobin concentration in blood can be detected by irradiation with near-infrared light, with the result that a change in cerebral blood flow in an active area of the brain can be measured.

[2] = test system: healthy men and women; assay: Digit vigilance task (DVT) response time after intake of test food, crossover test; type: in vivo, human; conditions: 10.0 g in 100 mL water taken orally before 2nd DVT; 5 DVTs, one per hour; 64 subjects; FIG. 1
Experimental: As the subjects, 64 healthy men and women of 20 to 60 years old were employed. The effects of intake of isomaltulose on cerebral blood flow and brain activity were evaluated based on measurement of the response time to a cognitive task (Digit vigilance task (DVT)) and change of the cerebral blood flow in accordance with the following test. Test methods are more specifically shown below. In the test, each block including the steps shown in Table 1 was performed in one hour, and the 1st block to the 5th block were continuously performed on the same day. […] Before the start of the 2nd DVT, an aqueous solution prepared by dissolving 10.0 g of isomaltulose in 100 mL of water was given as a test food. After the completion of DVT and before the next DVT, the Uchida Kraepelin test was performed. The Uchida Kraepelin test is a test of adjacent single-digit addition. In this Example, the test was performed in order to apply a load such as fatigue to the subject in order to control the break time. DVT is a task mainly used for measuring the vigilance (Non Patent Literature 1 (Joel S. Warm et al., Vigilance requires hard mental work and is stressful, Human Factors, Vol. 50 (3), pp. 433-41, 2008)). […] The time from display of the number or character to the subject's response is measured. […]

[3] = test system: healthy men and women; assay: Subjective questionnaire survey (VAS method) after the task; type: in vivo, human; conditions: questionnaire at 3rd to 5th block; compared to glucose control group
Experimental: As the subjects, 64 healthy men and women of 20 to 60 years old were employed. The effects of intake of isomaltulose on cerebral blood flow and brain activity were evaluated based on measurement of the response time to a cognitive task (Digit vigilance task (DVT)) and change of the cerebral blood flow in accordance with the following test. Test methods are more specifically shown below. In the test, each block including the steps shown in Table 1 was performed in one hour, and the 1st block to the 5th block were continuously performed on the same day. […] Before the start of the 2nd DVT, an aqueous solution prepared by dissolving 10.0 g of isomaltulose in 100 mL of water was given as a test food. After the completion of DVT and before the next DVT, the Uchida Kraepelin test was performed. The Uchida Kraepelin test is a test of adjacent single-digit addition. In this Example, the test was performed in order to apply a load such as fatigue to the subject in order to control the break time. First, “Last night, did you sleep better than usual?” was asked. After DVT or Uchida Kraepelin test, the survey for asking subjectivity of the subjects was conducted as to “How are you feeling right now?”, “Are you feeling tired right now?”, “Are you feeling irritated right now?”, “Are you feeling sleepy right now?”, and “Did you work diligently on the task until the end?”. […]

[4] = fraction of the hydrolysis rate of sucrose; cited from earlier work

O=C(CO)[C@@H](O)[C@H](O)[C@H](O)CO[C@H]1O[C@H](CO)[C@@H](O)[C@H](O)[C@H]1O [isomaltulose, 6-O-α-D-glucopyranosyl-D-fructose]
change in cerebral blood flow during DVT (average 0 to 120 seconds) [1]: significantly large | response time in DVT (change of average response time relative to 1st DVT) [2]: less likely to increase | answer to question "have you dealt with the task diligently to the end?" [3]: dealt with the task diligently | hydrolysis rate relative to sucrose [4]: ⅕
